Test results taken from PubChem BioAssay (NCI).
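A five-concentration, 48-hour dose response in 96-well plates underlies each endpoint, interpolated linearly between surrounding concentrations. At the TGI there is no net growth.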

Key:
Assay in all cases: NCI anticancer screen, dose series, 48 h
UACC-62 melanoma = test system: UACC-62 melanoma
OVCAR-8 ovarian = test system: OVCAR-8 ovarian
HCT-15 colon = test system: HCT-15 colon
EKVX NSCLC = test system: EKVX NSCLC
RPMI-8226 leukemia = test system: RPMI-8226 leukemia
LOX IMVI melanoma = test system: LOX IMVI melanoma
BT-549 breast = test system: BT-549 breast
MDA-N = test system: MDA-N
OVCAR-3 ovarian = test system: OVCAR-3 ovarian
MDA-MB-231 breast = test system: MDA-MB-231 breast
KM20L2 colon = test system: KM20L2 colon
A498 renal = test system: A498 renal
HCT-116 colon = test system: HCT-116 colon
SW-620 colon = test system: SW-620 colon
SNB-75 CNS = test system: SNB-75 CNS
COLO 205 colon = test system: COLO 205 colon
NCI-H226 lung = test system: NCI-H226 lung
RXF-631 renal = test system: RXF-631 renal
IGROV1 ovarian = test system: IGROV1 ovarian
NCI-H522 lung = test system: NCI-H522 lung
HOP-62 NSCLC = test system: HOP-62 NSCLC
HS 578T breast = test system: HS 578T breast
SK-OV-3 ovarian = test system: SK-OV-3 ovarian
A549 NSCLC = test system: A549 NSCLC
MOLT-4 leukemia = test system: MOLT-4 leukemia
OVCAR-4 ovarian = test system: OVCAR-4 ovarian
SF-268 CNS = test system: SF-268 CNS
MALME-3M melanoma = test system: MALME-3M melanoma
K-562 leukemia = test system: K-562 leukemia
CCRF-CEM leukemia = test system: CCRF-CEM leukemia
M14 melanoma = test system: M14 melanoma
SNB-78 CNS = test system: SNB-78 CNS
MCF7 breast = test system: MCF7 breast
RXF 393 renal = test system: RXF 393 renal
HCC-2998 colon = test system: HCC-2998 colon
UACC-257 melanoma = test system: UACC-257 melanoma
NCI-H460 lung = test system: NCI-H460 lung
SF-295 CNS = test system: SF-295 CNS
HL-60(TB) leukemia = test system: HL-60(TB) leukemia
LXFL 529 NSCLC = test system: LXFL 529 NSCLC
ACHN renal = test system: ACHN renal
TK-10 renal = test system: TK-10 renal
786-0 renal = test system: 786-0 renal
KM12 colon = test system: KM12 colon
DMS 114 small cell lung = test system: DMS 114 small cell lung
UO-31 renal = test system: UO-31 renal
NCI/ADR-RES ovarian = test system: NCI/ADR-RES ovarian
SF-539 CNS = test system: SF-539 CNS
PC-3 prostate = test system: PC-3 prostate
OVCAR-5 ovarian = test system: OVCAR-5 ovarian
HOP-92 NSCLC = test system: HOP-92 NSCLC
CAKI-1 renal = test system: CAKI-1 renal
DMS 273 small cell lung = test system: DMS 273 small cell lung
M19-MEL melanoma = test system: M19-MEL melanoma
SR leukemia = test system: SR leukemia
MDA-MB-435 = test system: MDA-MB-435
XF 498 CNS = test system: XF 498 CNS
SNB-19 CNS = test system: SNB-19 CNS
DLD-1 colon = test system: DLD-1 colon
SK-MEL-28 melanoma = test system: SK-MEL-28 melanoma
NCI-H23 lung = test system: NCI-H23 lung
DU-145 prostate = test system: DU-145 prostate
T-47D breast = test system: T-47D breast
SK-MEL-5 melanoma = test system: SK-MEL-5 melanoma
SN12C renal = test system: SN12C renal
SK-MEL-2 melanoma = test system: SK-MEL-2 melanoma
U251 CNS = test system: U251 CNS
HT29 colon = test system: HT29 colon
HOP-18 NSCLC = test system: HOP-18 NSCLC

## CCCCCCCCC(=O)NCCN(CCN)C(=O)CCCCCCCC
UACC-62 melanoma
  TGI: 21.9 µM
OVCAR-8 ovarian
  TGI: 26.8 µM
HCT-15 colon
  TGI: 10.3 µM
EKVX NSCLC
  TGI: 36.2 µM
RPMI-8226 leukemia
  TGI: 6.25 µM
LOX IMVI melanoma
  TGI: 9.06 µM
BT-549 breast
  TGI: 22.8 µM
MDA-N
  TGI: 11.6 µM
OVCAR-3 ovarian
  TGI: 30.9 µM
MDA-MB-231 breast
  TGI: 10.3 µM
KM20L2 colon
  TGI: 9.55 µM
A498 renal
  TGI: 43.8 µM
HCT-116 colon
  TGI: 8.02 µM
SW-620 colon
  TGI: 6.31 µM
SNB-75 CNS
  TGI: 15.2 µM
COLO 205 colon
  TGI: 6.72 µM
NCI-H226 lung
  TGI: 37.1 µM
RXF-631 renal
  TGI: 13 µM
IGROV1 ovarian
  TGI: 19.5 µM
NCI-H522 lung
  TGI: 7.21 µM
HOP-62 NSCLC
  TGI: 30.6 µM
HS 578T breast
  TGI: 24 µM
SK-OV-3 ovarian
  TGI: 29.9 µM
A549 NSCLC
  TGI: 29.9 µM
MOLT-4 leukemia
  TGI: 8.57 µM
OVCAR-4 ovarian
  TGI: 16.2 µM
SF-268 CNS
  TGI: 17.5 µM
MALME-3M melanoma
  TGI: 33.6 µM
K-562 leukemia
  TGI: 8.27 µM
CCRF-CEM leukemia
  TGI: 8.19 µM
M14 melanoma
  TGI: 22 µM
SNB-78 CNS
  TGI: 23.4 µM
MCF7 breast
  TGI: 17.5 µM
RXF 393 renal
  TGI: 34.1 µM
HCC-2998 colon
  TGI: 24.3 µM
UACC-257 melanoma
  TGI: 33.7 µM
NCI-H460 lung
  TGI: 19.7 µM
SF-295 CNS
  TGI: 10.5 µM
HL-60(TB) leukemia
  TGI: 5.32 µM
LXFL 529 NSCLC
  TGI: 7.89 µM
ACHN renal
  TGI: 19.2 µM
TK-10 renal
  TGI: 30 µM
786-0 renal
  TGI: 12.4 µM
KM12 colon
  TGI: 6.01 µM
DMS 114 small cell lung
  TGI: 10.1 µM
UO-31 renal
  TGI: 26.6 µM
NCI/ADR-RES ovarian
  TGI: 31.1 µM
SF-539 CNS
  TGI: 15.3 µM
PC-3 prostate
  TGI: 25 µM
OVCAR-5 ovarian
  TGI: 30.5 µM
HOP-92 NSCLC
  TGI: 37.1 µM
CAKI-1 renal
  TGI: 32.9 µM
DMS 273 small cell lung
  TGI: 6.65 µM
M19-MEL melanoma
  TGI: 10.6 µM
SR leukemia
  TGI: 13.8 µM
MDA-MB-435
  TGI: 29.7 µM
XF 498 CNS
  TGI: 5.43 µM
SNB-19 CNS
  TGI: 17.7 µM
DLD-1 colon
  TGI: 10.4 µM
SK-MEL-28 melanoma
  TGI: 30.5 µM
NCI-H23 lung
  TGI: 32.2 µM
DU-145 prostate
  TGI: 27.9 µM
T-47D breast
  TGI: 32.9 µM
SK-MEL-5 melanoma
  TGI: 26.4 µM
SN12C renal
  TGI: 24.7 µM
SK-MEL-2 melanoma
  TGI: 30.1 µM
U251 CNS
  TGI: 9.26 µM
HT29 colon
  TGI: 7.15 µM
HOP-18 NSCLC
  TGI: 31 µM

## CC(=O)OC1(C#N)CC2OC1C1NC21 (stereo not drawn)
UACC-62 melanoma
  TGI: > 100 µM
OVCAR-8 ovarian
  TGI: > 100 µM
HCT-15 colon
  TGI: > 100 µM
EKVX NSCLC
  TGI: > 100 µM
RPMI-8226 leukemia
  TGI: > 100 µM
LOX IMVI melanoma
  TGI: > 100 µM
KM20L2 colon
  TGI: > 100 µM
A498 renal
  TGI: > 100 µM
HCT-116 colon
  TGI: > 100 µM
SW-620 colon
  TGI: > 100 µM
SNB-75 CNS
  TGI: > 100 µM
COLO 205 colon
  TGI: > 100 µM
NCI-H226 lung
  TGI: > 100 µM
RXF-631 renal
  TGI: > 100 µM
IGROV1 ovarian
  TGI: > 100 µM
NCI-H522 lung
  TGI: > 100 µM
HOP-62 NSCLC
  TGI: > 100 µM
SK-OV-3 ovarian
  TGI: > 100 µM
A549 NSCLC
  TGI: > 100 µM
MOLT-4 leukemia
  TGI: > 100 µM
OVCAR-4 ovarian
  TGI: > 100 µM
SF-268 CNS
  TGI: > 100 µM
MALME-3M melanoma
  TGI: > 100 µM
K-562 leukemia
  TGI: > 100 µM
CCRF-CEM leukemia
  TGI: > 100 µM
M14 melanoma
  TGI: > 100 µM
SNB-78 CNS
  TGI: > 100 µM
RXF 393 renal
  TGI: > 100 µM
HCC-2998 colon
  TGI: > 100 µM
NCI-H460 lung
  TGI: > 100 µM
HL-60(TB) leukemia
  TGI: > 100 µM
LXFL 529 NSCLC
  TGI: > 100 µM
ACHN renal
  TGI: > 100 µM
TK-10 renal
  TGI: > 100 µM
786-0 renal
  TGI: > 100 µM
DMS 114 small cell lung
  TGI: > 100 µM
UO-31 renal
  TGI: > 100 µM
SF-539 CNS
  TGI: > 100 µM
OVCAR-5 ovarian
  TGI: > 100 µM
HOP-92 NSCLC
  TGI: > 100 µM
CAKI-1 renal
  TGI: > 100 µM
M19-MEL melanoma
  TGI: > 100 µM
XF 498 CNS
  TGI: > 100 µM
SNB-19 CNS
  TGI: > 100 µM
DLD-1 colon
  TGI: > 100 µM
SK-MEL-28 melanoma
  TGI: > 100 µM
NCI-H23 lung
  TGI: > 100 µM
SK-MEL-5 melanoma
  TGI: > 100 µM
SN12C renal
  TGI: > 100 µM
SK-MEL-2 melanoma
  TGI: > 100 µM
U251 CNS
  TGI: > 100 µM

## NNC(=O)N/N=C1/C(=O)N(c2ccc(Cl)c(Cl)c2)C(=O)C(=O)C1c1nc2ccccc2o1 (stereo not drawn)
UACC-62 melanoma
  TGI: > 100 µM
OVCAR-8 ovarian
  TGI: > 100 µM
HCT-15 colon
  TGI: > 100 µM
EKVX NSCLC
  TGI: > 100 µM
LOX IMVI melanoma
  TGI: > 100 µM
OVCAR-3 ovarian
  TGI: > 100 µM
KM20L2 colon
  TGI: > 100 µM
A498 renal
  TGI: > 100 µM
HCT-116 colon
  TGI: > 100 µM
SW-620 colon
  TGI: > 100 µM
SNB-75 CNS
  TGI: > 100 µM
COLO 205 colon
  TGI: > 100 µM
NCI-H226 lung
  TGI: > 100 µM
RXF-631 renal
  TGI: > 100 µM
IGROV1 ovarian
  TGI: > 100 µM
NCI-H522 lung
  TGI: > 100 µM
HOP-62 NSCLC
  TGI: > 100 µM
SK-OV-3 ovarian
  TGI: > 100 µM
A549 NSCLC
  TGI: > 100 µM
MOLT-4 leukemia
  TGI: > 100 µM
OVCAR-4 ovarian
  TGI: > 100 µM
SF-268 CNS
  TGI: > 100 µM
MALME-3M melanoma
  TGI: > 100 µM
K-562 leukemia
  TGI: > 100 µM
CCRF-CEM leukemia
  TGI: > 100 µM
M14 melanoma
  TGI: > 100 µM
SNB-78 CNS
  TGI: > 100 µM
HCC-2998 colon
  TGI: > 100 µM
UACC-257 melanoma
  TGI: > 100 µM
SF-295 CNS
  TGI: > 100 µM
HL-60(TB) leukemia
  TGI: > 100 µM
LXFL 529 NSCLC
  TGI: > 100 µM
ACHN renal
  TGI: > 100 µM
TK-10 renal
  TGI: > 100 µM
786-0 renal
  TGI: > 100 µM
DMS 114 small cell lung
  TGI: > 100 µM
UO-31 renal
  TGI: > 100 µM
SF-539 CNS
  TGI: > 100 µM
OVCAR-5 ovarian
  TGI: > 100 µM
HOP-92 NSCLC
  TGI: > 100 µM
CAKI-1 renal
  TGI: > 100 µM
DMS 273 small cell lung
  TGI: > 100 µM
M19-MEL melanoma
  TGI: > 100 µM
SNB-19 CNS
  TGI: > 100 µM
DLD-1 colon
  TGI: > 100 µM
SK-MEL-28 melanoma
  TGI: > 100 µM
NCI-H23 lung
  TGI: > 100 µM
SK-MEL-5 melanoma
  TGI: > 100 µM
SN12C renal
  TGI: > 100 µM
SK-MEL-2 melanoma
  TGI: > 100 µM
U251 CNS
  TGI: > 100 µM
HT29 colon
  TGI: > 100 µM
HOP-18 NSCLC
  TGI: > 100 µM
